# In patent US4596873A, “1,4,5,6,7,8-Hexahydro-2-alkyl-4-aryl-5-oxo-1,7-naphthyridine-3-carboxyl ic acid aromatic esters and pharmaceutically acceptable acid addition salts thereof useful as antihypertensive agents” (American Home Products Corporation, priority 1985, dated 1986):
# How the values were obtained:
# [1] = system: isolated paced intact rabbit atria; assay: negative inotropic (cardiac depressant) effect in isolated paced intact rabbit atria; format: cell-based; conditions: 3 Hz, cumulative 10^-9 M to 10^-5 M; for IC25: Oryctolagus cuniculus, read-out: IC25 (concentration which produces 25% inhibition of isometric force)
# Procedure: The potential for detrimental cardiac depressant (negative inotropic) effects of the compounds of this invention was assessed in isolated paced intact rabbit atria. Left and right atria (with nodal tissue excised) were suspended vertically in a jacketed (30° C.) organ bath containing 50 ml of PSS and aerated with 95% O2 /5% CO2. Muscles (N=5-9/compound) were stimulated at a frequency of 3 Hz with a WPI stimulator for a 60 minute equilibration period. Changes in isometric force were recorded as described for the aortic smooth muscle experiments,supra. Following equilibration, the test compound (or as a control, the ethanol vehicle) was added to the organ bath in a cumulative manner from doses ranging from 10^-9 M to 10^-5 M (10^-5 M was the maximum dose which could be attained due to the depressant effect of ethanol) and effects on developed isometric force were determined.
# (§1) The following examples illustrate the preparation of a representative number of compounds of this invention. After each example, and Ca^+2 antagonist activity of the compound is presented in terms of percent relaxation of aortic tissue (P.R.) at 10^-5 M concentration. […] Inhibition of superprecipitation (Antag. of Actin-Myosin interaction) is expressed as percent inhibition (mean±standard error of the mean for at least 3 separate experiments) at a compound concentration. In the same manner, inhibition of myosin light chain phosphorylation (Antag. of MLCP) is expressed as a percent inhibition at a compound concentration. Similarly, the antihypertensive activity is reported in terms of millimeters mercury (mmHg) systolic blood pressure (B.P.) reduction at the stated time post 50 mg/kg oral dosing or other dosing as indicated.
# [2] = system: arterial actin-myosin interactions; assay: inhibition of superprecipitation (antagonism of arterial actin-myosin interaction); format: biochemical; conditions: six minute time-point, mean±SEM
# Procedure: (§2) The data reported herein was obtained at a six minute time-point rather than the 1.5, 5 and 12 minute time points indicated in the superprecipitation assay of the Silver et al. paper.
# as §1
# [3] = system: Ca^+2 -calmodulin dependent myosin light chain phosphorylation; assay: inhibition of Ca^+2-calmodulin dependent myosin light chain phosphorylation (MLCP); format: biochemical
# Procedure: as §2, §1
# [4] = system: spontaneously hypertensive rats; assay: decrease in systolic blood pressure of spontaneously hypertensive rats; format: in vivo, rat
SMILES,IC25 (concentration which produces 25% inhibition of isometric force) [1],inhibition of superprecipitation (Antag. of Actin-Myosin) ([2]; 50 μM),inhibition of superprecipitation (Antag. of Actin-Myosin) ([2]; 100 μM),inhibition of myosin light chain phosphorylation (Antag. of MLCP) ([3]; 50 μM),inhibition of myosin light chain phosphorylation (Antag. of MLCP) ([3]; 100 μM),"systolic blood pressure (B.P.) reduction ([4]; 25 mg/kg, 1.5 hours)","systolic blood pressure (B.P.) reduction ([4]; 25 mg/kg, 4 hours)",IC25 [1],inhibition of superprecipitation (Antag. of Actin-Myosin) ([2]; 10 μM),inhibition of superprecipitation (Antag. of Actin-Myosin) ([2]; 25 μM),inhibition of myosin light chain phosphorylation (Antag. of MLCP) ([3]; 10 μM),inhibition of myosin light chain phosphorylation (Antag. of MLCP) ([3]; 25 μM),"systolic blood pressure (B.P.) reduction ([4]; 10 mg/kg, 1.5 hours)","systolic blood pressure (B.P.) reduction ([4]; 10 mg/kg, 4 hours)","systolic blood pressure (B.P.) reduction ([4]; 5 mg/kg, 1.5 hours)","systolic blood pressure (B.P.) reduction ([4]; 5 mg/kg, 4 hours)"
"CC1=C(C(=O)OCCOc2ccccc2)C(c2c(F)c(F)c(F)c(F)c2F)C2=C(CNCC2=O)N1 (single isomer, unassigned; (+)) [Example 4, (+)-1,4,5,6,7,8-Hexahydro-2-methyl-5-oxo-4-(pentafluorophenyl)-1,7-naphthyridine-3-carboxylic acid 2-phenoxyethyl ester]",800 nM,38%,71%,37%,67%,-58 mmHg,-78 mmHg,–,–,–,–,–,–,–,–,–
"CC1=C(C(=O)OCCOc2cccc(Cl)c2Cl)C(c2c(F)c(F)c(F)c(F)c2F)C2=C(CNCC2=O)N1 (centres unmarked) [Example 22, 1,4,5,6,7,8-Hexahydro-2-methyl-5-oxo-4-(pentafluorophenyl)-1,7-naphthyridine-3-carboxylic acid 2-(2,3-dichlorophenoxy)ethyl ester]",–,75±4%,78±1%,73±1.5%,74±2%,-37 mmHg,-52 mmHg,1000 nM,30±3%,54±3%,25%,54±2.5%,–,–,–,–
"CO[C@H](COC(=O)C1=C(C)NC2=C(C(=O)CNC2)C1c1c(F)c(F)c(F)c(F)c1F)c1ccccc1 (stereo partly drawn) [Example 7, 1,4,5,6,7,8-Hexahydro-2-methyl-5-oxo-4-(pentafluorophenyl)-1,7-naphthyridine-3-carboxylic acid (S)-2-methoxy-2-phenylethyl ester]",–,67%,80%,59%,74%,–,–,6500 nM,–,–,–,–,-51 mmHg,-54 mmHg,–,–
"COC(COC(=O)C1=C(C)NC2=C(C(=O)CNC2)C1c1c(F)c(F)c(F)c(F)c1F)c1ccccc1 (centres unmarked) [Example 5, 1,4,5,6,7,8-Hexahydro-2-methyl-5-oxo-4-(pentafluorophenyl)-1,7-naphthryridine-3-carboxylic acid 2-methoxy-2-phenylethyl ester]",–,50±5%,75±4%,48±2%,70±3%,-60 mmHg,-72 mmHg,1000 nM,–,20±5%,–,21±3%,-41 mmHg,-68 mmHg,-44 mmHg,-38 mmHg
